Source: US20140213538A1, “LYSOPHOSPHATIDIC ACID RECEPTOR ANTAGONISTS” (InterMune, Inc., priority 2013, published 2014)

Assays:
Format in all cases: cell-based
LPA1 [1] = biological target: T1, LPA1 (Homo sapiens, UniProt Q92633); test: LPA1 Migration Assay (Oris); parameters: host or cells: primary fibroblasts (lung, dermal), HFL-1, 3T3 and CHO cells expressing LPA1R; conditions: read-out: Cell Migration EC50
In short: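 Oris exclusion-zone migration of LPA1R-expressing cells (primary lung/dermal fibroblasts, HFL-1, 3T3, CHO), Cell Tracker Green-loaded and serum-starved 12-24 h, toward LPA or serum. Fixed cells in the detection zone were counted by high-content imaging, and cell number vs. concentration was fitted to a 4-parameter logistic.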

LPA/S1P GPCR of interest = biological target: T2, LPA/S1P GPCR of interest (Homo sapiens, UniProt Q92633); test: Beta-Arrestin based assay (PathHunter)
T2 construct: host or cells: CHO
T2 sequence (Q92633 whole entry): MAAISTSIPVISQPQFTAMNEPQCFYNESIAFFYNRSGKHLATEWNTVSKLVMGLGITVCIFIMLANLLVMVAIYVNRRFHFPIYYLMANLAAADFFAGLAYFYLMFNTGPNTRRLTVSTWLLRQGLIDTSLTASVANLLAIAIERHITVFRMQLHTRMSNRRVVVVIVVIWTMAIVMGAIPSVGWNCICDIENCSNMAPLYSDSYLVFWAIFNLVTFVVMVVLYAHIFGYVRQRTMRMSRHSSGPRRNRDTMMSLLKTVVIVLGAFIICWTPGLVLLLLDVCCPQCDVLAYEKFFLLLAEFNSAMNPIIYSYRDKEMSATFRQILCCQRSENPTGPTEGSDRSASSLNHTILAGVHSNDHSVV
In short: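 EA Parental CHO cells (DiscoverX) were transfected with FuGENE (Roche) using CMV promoter-driven DNA constructs encoding the LPA/S1P GPCR of interest fused to a ProLink tag. Beta-arrestin recruitment in agonist mode was assessed 24-48 hrs later with PathHunter kits. Tests ran in quadruplicate in white 384 well plates, and end point luminescence was fit to a 4 parameter logistic function.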

LPA1 [2] = biological target: T1, LPA1; test: Ca Flux LPA1 assay; parameters: the full-length cDNA for human LPA1 is obtained by PCR of the reverse transcription reaction; expressed in transfected cells

T1 sequence (Q92633 whole entry): as above

Structure (SMILES)	EC50 (LPA1 [1]) [nM]	EC50 (LPA/S1P GPCR of interest) [nM]	IC50 (LPA1 [2]) [nM]
C[C@@H](OC(=O)Nc1c(-c2ccc(-c3cc(F)c(Oc4ccncc4C(=O)O)c(F)c3)cc2)nnn1C)c1ccccc1 [IT453]	< 50	< 50	50 to 500
Cc1nsc(-c2ccc(-c3cc(F)c(Oc4ncccc4C(=O)O)c(F)c3)cc2)c1NC(=O)O[C@H](C)c1ccccc1 [IT451]	< 50	< 50	50 to 500
C[C@@H](OC(=O)Nc1c(-c2ccc(-c3ccc(C4(C(=O)O)CCOCC4)cc3)cc2)cnn1C)c1ccccc1 [IT027]	> 500	50 to 500	50 to 500
C[C@@H](OC(=O)Nc1c(C#Cc2cc(F)c(Oc3ncccc3C(=O)O)c(F)c2)cnn1C)c1ccccc1 [IT303]	50 to 500	50 to 500	< 50
C[C@@H](OC(=O)Nc1c(-c2ccc(-c3ccc(Oc4ccccc4C(=O)O)cc3)cc2)nnn1C)c1ccccc1 [IT309]	< 50	< 50	< 50
CCn1ncc(-c2ccc(-c3cc(F)c(Oc4ncccc4C(=O)O)c(F)c3)cc2)c1NC(=O)O[C@H](C)c1ccccc1 [IT489]	< 50	< 50	50 to 500
C[C@@H](OC(=O)Nc1c(-c2ccc(-c3cc(F)c(Oc4cccnc4C(=O)O)c(F)c3)cc2)cnn1C)c1ccccc1 [IT436]	50 to 500	< 50	< 50
C[C@@H](OC(=O)Nc1c(-c2ccc(-c3ccc(C4(C(=O)O)CC4)cc3)cc2)oc2ccccc12)c1ccccc1 [IT496]	< 50	< 50	> 500
Cc1noc(-c2ccc(-c3ccc(Oc4ccncc4C(=O)O)cc3)cc2)c1NC(=O)O[C@H](C)c1ccccc1 [IT227]	< 50	< 50	< 50
Cc1noc(-c2cc3sc(C#CC4(C(=O)O)CC4)cc3s2)c1NC(=O)O[C@H](C)c1ccccc1 [IT117]	50 to 500	< 50	< 50
C[C@@H](OC(=O)Nc1c(-c2cc(Cl)c(-c3cc4sc(C5(C(=O)O)CC5)cc4s3)cc2F)cnn1C)c1ccccc1 [IT282]	< 50	< 50	50 to 500

Results, then the molecule that gave them:

EC50 (LPA1 [1]) [nM]	EC50 (LPA/S1P GPCR of interest) [nM]	IC50 (LPA1 [2]) [nM]	Structure (SMILES)
50 to 500	< 50	50 to 500	C[C@@H](OC(=O)Nc1c(-c2cc3sc(-c4cc(F)c(C5(C(=O)O)CC5)c(F)c4)cc3s2)nnn1C)c1ccccc1 [IT262]
50 to 500	< 50	50 to 500	Cc1noc(-c2ccc(-c3ccc(OC(F)(F)C(=O)O)cc3)cc2)c1NC(=O)O[C@H](C)c1ccccc1 [IT228]
50 to 500	< 50	< 50	Cc1noc(-c2ccc(-c3ccc(Oc4ccncc4C(=O)O)c(F)c3)cc2)c1NC(=O)O[C@H](C)c1ccccc1 [IT423]
50 to 500	< 50	> 500	C[C@@H](OC(=O)Nc1c(-c2cc3sc(-c4ccc(C5(C(=O)O)CC5)cc4)cc3s2)cnn1C)c1ccccc1 [IT119]
50 to 500	> 500	> 500	Cc1noc(-c2ccc(-c3ccc(S(C)(=O)=O)cc3)cc2)c1NC(=O)O[C@H](C)c1ccccc1 [IT124]
< 50	< 50	50 to 500	Cc1noc(-c2ccc(-c3ccc(C4(C(=O)O)CC4(F)F)cc3)cc2)c1NC(=O)O[C@H](C)c1ccccc1 (stereo partly drawn) [IT172]
< 50	< 50	< 50	C[C@@H](OC(=O)Nc1c(-c2ccc(-c3ccc(Oc4ccccc4C(=O)O)c(F)c3)cc2)cnn1C)c1ccccc1 [IT446]
< 50	< 50	50 to 500	Cc1noc(-c2ccc(-c3ccc(Oc4c(C(=O)O)n[nH]c4C)cc3)cc2)c1NC(=O)O[C@H](C)c1ccccc1 [IT485]
50 to 500	< 50	50 to 500	Cc1nsc(-c2ccc(-c3cc(F)c(Oc4ccccc4C(=O)O)c(F)c3)cc2)c1NC(=O)O[C@H](C)c1ccccc1 [IT448]
< 50	< 50	< 50	Cc1noc(-c2ccc(-c3ccc(Oc4ncccc4C(=O)O)cc3)cc2)c1NC(=O)O[C@H](C)c1ccccc1 [IT199]
